According to patent US11485736B2 (KSQ Therapeutics, Inc., priority 2018, dated 2022):

Biological target: USP1/UAF1 (Homo sapiens (Human), UniProt O94782)
Assay: Deubiquitination assay for USP1/UAF1 activity (ubiquitin-rhodamine 110)
Type: biochemical
Conditions: Table 2; 0.05 nM USP1/UAF1, 150 nM ubiquitin-rhodamine
Procedure: Certain Compounds of the Disclosure were assessed for USP1/UAF1 activity in a Ubiquitin Rhodamine assay modified from those described previously.
Deubiquitinase activity was measured using ubiquitin-rhodamine 110 as a substrate. Cleavage of the amide bond between rhodamine and the c-terminal glycine of ubiquitin yields an increase in fluorescence signal. The assay was conducted in 20 ul total volume of assay buffer (50 mM Tris-HCl, pH 7.8, 0.5 mM EDTA, 0.01% Bovine Serum Albumin, 1 mM DTT, 0.01% Tween-20), and 0.05 nM USP1/UAF1 enzyme.
Compounds, dissolved in DMSO were tested in dose response format, beginning at 10 uM.
Compounds depicted below were added to enzyme/assay buffer mix and incubated 10 min.
Data for all assay formats was calculated as percent inhibition compared with control wells. […] IC50 values were calculated using the standard four parameter curve fitting algorithm in either Prism GraphPad (La Jolla, Calif.) software, or Collaborative Drug Discovery (Burlingame, Calif.) CDD Vault.

USP1/UAF1, sequence (O94782 whole entry): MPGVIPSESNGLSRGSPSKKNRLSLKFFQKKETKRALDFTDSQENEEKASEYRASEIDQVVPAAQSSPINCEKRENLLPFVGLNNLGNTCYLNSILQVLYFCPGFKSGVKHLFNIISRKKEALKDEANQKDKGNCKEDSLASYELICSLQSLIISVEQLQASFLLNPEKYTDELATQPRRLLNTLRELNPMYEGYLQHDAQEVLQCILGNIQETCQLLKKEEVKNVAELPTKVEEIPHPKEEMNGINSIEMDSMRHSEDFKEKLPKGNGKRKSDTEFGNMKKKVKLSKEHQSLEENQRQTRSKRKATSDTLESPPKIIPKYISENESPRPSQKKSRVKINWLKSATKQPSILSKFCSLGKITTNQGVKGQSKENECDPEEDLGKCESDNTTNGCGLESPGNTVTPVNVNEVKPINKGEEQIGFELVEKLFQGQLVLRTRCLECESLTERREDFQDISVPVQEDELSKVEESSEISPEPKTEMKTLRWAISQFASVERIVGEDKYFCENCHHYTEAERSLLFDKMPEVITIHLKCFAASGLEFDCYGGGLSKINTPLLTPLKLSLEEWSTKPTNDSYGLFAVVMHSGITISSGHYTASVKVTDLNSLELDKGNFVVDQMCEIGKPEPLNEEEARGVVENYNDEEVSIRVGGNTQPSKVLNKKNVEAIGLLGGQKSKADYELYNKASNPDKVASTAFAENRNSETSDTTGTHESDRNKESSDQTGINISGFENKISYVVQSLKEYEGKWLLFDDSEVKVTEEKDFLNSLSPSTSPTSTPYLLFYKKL
USP1/UAF1, sequence (Q8TAF3 whole entry partner): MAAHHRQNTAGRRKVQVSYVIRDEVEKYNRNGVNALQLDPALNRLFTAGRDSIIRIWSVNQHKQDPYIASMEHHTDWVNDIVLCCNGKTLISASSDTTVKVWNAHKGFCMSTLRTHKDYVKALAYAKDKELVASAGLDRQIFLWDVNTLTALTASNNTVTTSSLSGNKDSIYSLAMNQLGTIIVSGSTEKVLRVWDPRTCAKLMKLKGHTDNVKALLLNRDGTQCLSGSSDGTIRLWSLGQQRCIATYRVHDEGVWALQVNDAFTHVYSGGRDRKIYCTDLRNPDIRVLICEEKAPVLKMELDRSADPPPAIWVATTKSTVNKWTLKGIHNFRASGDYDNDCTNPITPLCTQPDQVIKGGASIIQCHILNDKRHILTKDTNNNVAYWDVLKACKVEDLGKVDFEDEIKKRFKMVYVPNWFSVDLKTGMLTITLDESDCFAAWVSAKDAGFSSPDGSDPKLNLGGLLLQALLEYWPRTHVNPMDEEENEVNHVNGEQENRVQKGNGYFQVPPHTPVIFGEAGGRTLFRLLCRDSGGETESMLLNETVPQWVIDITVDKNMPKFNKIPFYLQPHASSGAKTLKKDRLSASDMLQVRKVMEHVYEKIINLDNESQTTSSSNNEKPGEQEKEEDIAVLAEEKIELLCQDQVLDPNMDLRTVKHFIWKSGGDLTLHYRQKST

| SMILES | IC50 |
| --- | --- |
| Cc1cc(C(F)(F)F)nn1-c1ccc(Cn2ncc3cnc(-c4cccnc4C(C)C)nc32)cc1 [drawing 713] | 10 to 100 nM |
| Cc1nc(-c2ccccc2C(C)C)nc2c1cnn2Cc1ccc(-c2nc(C(F)(F)F)cn2C)cc1 | < 10 nM |
| CC(C)c1c(F)cccc1-c1ncc2cnn(Cc3ccc(-c4nc(C(F)(F)F)cn4C)cc3)c2n1 [drawing 728] | < 10 nM |
| COc1cnccc1-c1ncc2cnn(Cc3ccc(-c4nc(C(F)(F)F)cn4C)cc3)c2n1 | > 200 nM |
| CSc1cccc(C)c1-c1ncc2cnn(Cc3ccc(-c4nc(C(F)(F)F)cn4C)cc3)c2n1 [drawing 722] | 10 to 100 nM |
| Cc1cccc(S(C)(=O)=O)c1-c1ncc2cnn(Cc3ccc(-c4nc(C(F)(F)F)cn4C)cc3)c2n1 | 100 to 200 nM |
| COc1cccc(C)c1-c1ncc2cnn(Cc3ccc(-c4nc(C(F)(F)F)cn4C)cc3)c2n1 [drawing 717] | 10 to 100 nM |
| COc1cccc(OC)c1-c1ncc2cnn(Cc3ccc(-c4nc(C(F)(F)F)cn4C)cc3)c2n1 [drawing 714] | 10 to 100 nM |
| CC(C)c1ncccc1-c1ncc2cnn(Cc3ccc(-c4nc(C(F)(F)F)cn4C)cc3)c2n1 [drawing 721] | 10 to 100 nM |
| COc1ccccc1-c1ncc2cnn(Cc3ccc(-c4nc(C(F)(F)F)cn4C)cc3)c2n1 [drawing 715] | 10 to 100 nM |

Next, values leading:

| IC50 | SMILES |
| --- | --- |
| < 10 nM | COc1ncnc(C2CC2)c1-c1ncc2cnn(Cc3ccc(-n4nc(C(F)(F)F)cc4C)cc3)c2n1 [drawing 723] |
| 10 to 100 nM | COc1nccc(C#N)c1-c1ncc2cnn(Cc3ccc(-c4nc(C(F)(F)F)cn4C)cc3)c2n1 |
| 10 to 100 nM | COc1ncnc(C)c1-c1ncc2cnn(Cc3ccc(-c4nc(C(F)(F)F)cn4C)cc3)c2n1 [drawing 712] |

Same assay, conditions: Table 3; 0.05 nM USP1/UAF1, 150 nM ubiquitin-rhodamine

| SMILES | IC50 |
| --- | --- |
| CCOc1ncnc(OCC)c1-c1ncc2cnn(Cc3ccc(-c4nc(C(F)(F)F)cn4CC)cc3)c2n1 [drawing 733] | < 10 nM |
| COc1ncnc(C2CC2)c1-c1ncc2cnn(Cc3ccc(-n4nc(C(F)(F)F)cc4OC)nc3)c2n1 [drawing 768] | 10 to 100 nM |
| COCCOc1ncnc(C)c1-c1ncc2cnn(Cc3ccc(-n4nc(C(F)(F)F)cc4C)cc3)c2n1 [drawing 789] | > 200 nM |
| COc1ncnc(C)c1-c1ncc2cnn(Cc3ccc(-n4nc(C(F)(F)F)cc4C)cc3)c2n1 [drawing 784] | 100 to 200 nM |
| CCn1cc(C(F)(F)F)nc1-c1ccc(Cn2ncc3cnc(-c4c(OC)cnn4C4CC4)nc32)cc1 [drawing 761] | 10 to 100 nM |
| Cc1ncnc(C(C)C)c1-c1ncc2cnn(Cc3ccc(-n4nc(C(F)(F)F)cc4C)cc3)c2n1 [drawing 776] | 10 to 100 nM |
| Cc1cc(C(F)(F)F)nn1-c1ccc(Cn2ncc3cnc(-c4cccnc4C#N)nc32)cc1 [drawing 797] | > 200 nM |

Now from value to molecule:

| IC50 | SMILES |
| --- | --- |
| 10 to 100 nM | COc1nc(C)nc(C2CC2)c1-c1ncc2cnn(Cc3ccc(-c4nc(C(F)(F)F)cn4C)cc3)c2n1 [drawing 760] |
| 10 to 100 nM | CCn1cc(C(F)(F)F)nc1-c1ccc(Cn2ncc3cnc(-c4c(OC5CCC5)ncnc4C4CC4)nc32)cc1 [drawing 752] |
| 10 to 100 nM | Cn1cc(C(F)(F)F)nc1-c1ccc(Cn2ncc3cnc(-c4c(C#N)ncnc4C4CC4)nc32)cc1 |
| < 10 nM | CCn1cc(C(F)(F)F)nc1-c1ccc(Cn2ncc3cnc(-c4c(OC(F)F)ncnc4C4CC4)nc32)cc1 [drawing 731] |
| 10 to 100 nM | CCn1cc(C(F)(F)F)nc1-c1ccc(Cn2ncc3cnc(-c4c(OC5CC5)ncnc4C4CC4)nc32)cc1 [drawing 750] |
| 10 to 100 nM | COc1ncnc(C2CC2)c1-c1ncc2cnn(Cc3ccc(-c4nc(C(F)(F)F)cn4C)cc3F)c2n1 [drawing 758] |
| > 200 nM | COc1ncnc(C2CC2)c1-c1ncc2cnn(Cc3ccc(-c4nc(C(F)F)nn4C)cc3)c2n1 |
| 10 to 100 nM | CCn1cc(C(F)(F)F)nc1-c1ccc([C@H](C)n2ncc3cnc(-c4c(OC)ncnc4C4CCC4)nc32)cc1 (single isomer, unassigned) [drawing 748] |
| > 200 nM | Cn1cc(C(F)(F)F)nc1-c1ccc(Cn2ncc3cnc(-c4c(OCc5ccccc5)ncnc4C4CC4)nc32)cc1 |
| 10 to 100 nM | COc1ncnc(C2CC2)c1-c1ncc2cnn(Cc3ccc(-c4nc(C(F)(F)F)n(C)n4)cc3)c2n1 [drawing 778] |
| > 200 nM | Cn1cc(C(F)(F)F)nc1-c1ccc(Cn2ncc3cnc(-c4c(C5CC5)ncnc4N4CCC4)nc32)cc1 |
| 10 to 100 nM | CC(C)Oc1ncnc(C2CC2)c1-c1ncc2cnn(Cc3ccc(-c4nc(C(F)(F)F)cn4C)cc3)c2n1 [drawing 756] |
| 10 to 100 nM | [2H]C([2H])([2H])Oc1ncnc(C2CC2)c1-c1ncc2cnn(Cc3ccc(-c4nc(C(F)(F)F)cn4CC)cc3)c2n1 [drawing 744] |
| 10 to 100 nM | COc1ncnc(C2CCC2)c1-c1ncc2cnn(Cc3ccc(-c4nc(C(F)(F)F)cn4C)cc3)c2n1 [drawing 749] |
| 10 to 100 nM | CCOc1ncnc(C2CC2)c1-c1ncc2cnn(Cc3ccc(-c4nc(C(F)(F)F)cn4C)cc3)c2n1 [drawing 763] |
| > 200 nM | COc1nc(C)c(-c2ncc3cnn(Cc4ccc(-c5nc(C(F)(F)F)cn5C)cc4)c3n2)c(OC)n1 [drawing 793] |
| 10 to 100 nM | COc1ncnc(C2CC2)c1-c1ncc2cnn(Cc3ccc(-c4nc(C(F)(F)F)c[nH]4)cc3)c2n1 [drawing 765] |
| 10 to 100 nM | COc1ncnc(C(C)(C)F)c1-c1ncc2cnn(Cc3ccc(-c4nc(C(F)(F)F)cn4C)cc3)c2n1 [drawing 772] |
| 10 to 100 nM | COc1ncnc(C2(C)CC2)c1-c1ncc2cnn(Cc3ccc(-c4nc(C(F)(F)F)cn4C)cc3)c2n1 [drawing 769] |
| 10 to 100 nM | CCn1cc(C(F)(F)F)nc1-c1ccc(Cn2ncc3cnc(-c4c(OC)ncnc4C4CC4)nc32)cn1 [drawing 767] |
| 10 to 100 nM | COc1ncnc(C2CC2)c1-c1ncc2cnn(Cc3ccc(-c4nc(C(F)(F)F)cn4CCF)cc3)c2n1 [drawing 764] |
| > 200 nM | COCCOc1ncnc(C2CC2)c1-c1ncc2cnn(Cc3ccc(-c4nc(C(F)(F)F)cn4C)cc3)c2n1 [drawing 787] |
| > 200 nM | COc1ncnc(C2CC2)c1-c1ncc2cnn(Cc3ccc(-c4nc(C(F)F)n(C)n4)cc3)c2n1 |
| 10 to 100 nM | CCn1cc(C(F)(F)F)nc1-c1ccc([C@H](C)n2ncc3cnc(-c4c(OC)ncnc4C4CC4)nc32)cc1 (single isomer, unassigned) [drawing 751] |
| > 200 nM | CN(C)c1ncnc(C2CC2)c1-c1ncc2cnn(Cc3ccc(-c4nc(C(F)(F)F)cn4C)cc3)c2n1 |

Same assay, conditions: Table 4; 0.05 nM USP1/UAF1, 150 nM ubiquitin-rhodamine

| SMILES | IC50 |
| --- | --- |
| COc1ncnc(C2CC2)c1-c1ncc2c(OC)nn([C@@H](C)c3ccc(-c4nc(C(F)(F)F)cn4CCF)cc3)c2n1 [drawing 809] | 10 to 100 nM |
| COc1ncnc(C2CC2)c1-c1ncc2ncn(Cc3ccc(-c4nc(C(F)(F)F)cn4C(C)C)cc3)c2n1 [drawing 818] | 10 to 100 nM |
| CCn1cc(C(F)(F)F)nc1-c1ccc(Cn2nc(N3CCC3)c3cnc(-c4c(OC)ncnc4C4CC4)nc32)cc1 [drawing 810] | 10 to 100 nM |
| COc1ncnc(C2CC2)c1-c1ncc2nc(C(C)C)n(Cc3ccc(-c4nc(C(F)(F)F)cn4C(C)C)cc3)c2n1 [drawing 805] | 10 to 100 nM |
| CCOc1ncnc(C2CC2)c1-c1ncc2c(OCC)nn(Cc3ccc(-c4nc(C(F)(F)F)cn4CC)cc3)c2n1 [drawing 815] | 10 to 100 nM |
| COc1ncnc(C2CC2)c1-c1ncc2nc(C)n(Cc3ccc(-n4nc(C(F)(F)F)cc4C)cc3)c2n1 [drawing 827] | 10 to 100 nM |
| CCn1cc(C(F)(F)F)nc1-c1ccc(Cn2nc(SC)c3cnc(-c4c(OC)ncnc4C4CC4)nc32)cc1 [drawing 800] | 10 to 100 nM |
| CCn1cc(C(F)(F)F)nc1-c1ccc(Cn2nc(SCc3ccc(OC)cc3)c3cnc(-c4c(OC)ncnc4C4CC4)nc32)cc1 [drawing 801] | 10 to 100 nM |
| CCOc1nn(Cc2ccc(-c3nc(C(F)(F)F)cn3CC)cc2)c2nc(-c3c(OC)ncnc3C3CC3)ncc12 [drawing 816] | 10 to 100 nM |
| COCc1nc2cnc(-c3c(OC)ncnc3C3CC3)nc2n1Cc1ccc(-c2nc(C(F)(F)F)cn2C(C)C)cc1 [drawing 804] | 10 to 100 nM |
| COc1ncnc(C2CC2)c1-c1ncc2c(OC)nn(C(C)c3ccc(-c4nc(C(F)(F)F)cn4CCF)cc3)c2n1 (stereo not drawn) [drawing 812] | 10 to 100 nM |
| CCn1c(-c2ccc(Cn3nc(OC)c4cnc(-c5c(OC)ncnc5C5CC5)nc43)cc2)nc(C(F)(F)F)c1Br [drawing 811] | 10 to 100 nM |
| COc1ncnc(C2CC2)c1-c1ncc2nc(C3CC3)n(Cc3ccc(-n4nc(C(F)(F)F)cc4C)cc3)c2n1 [drawing 822] | 10 to 100 nM |
| COc1ncnc(C2CC2)c1-c1ncc2nc(C(C)C)n(Cc3ccc(-n4nc(C(F)(F)F)cc4C)cc3)c2n1 [drawing 824] | 100 to 200 nM |
| COc1ncnc(C2CC2)c1-c1ncc2c(OC)nn([C@@H](C)c3ccc(-c4nc(C(F)(F)F)c(Br)n4C)cc3)c2n1 [drawing 802] | 10 to 100 nM |

Now from value to molecule:

| IC50 | SMILES |
| --- | --- |
| 10 to 100 nM | COc1ncnc(C2CC2)c1-c1ncc2nnn(Cc3ccc(-c4nc(C(F)(F)F)cn4C)cc3)c2n1 [drawing 828] |
| 10 to 100 nM | CCn1cc(C(F)(F)F)nc1-c1ccc(Cn2nc(OC)c3cnc(-c4c(OC)ncnc4C4CC4)nc32)cc1 [drawing 820] |
| 10 to 100 nM | COc1ncnc(C2CC2)c1-c1ncc2ccn(Cc3ccc(-c4nc(C(F)(F)F)cn4C)cc3)c2n1 [drawing 826] |
| < 10 nM | COc1ncnc(C2CC2)c1-c1ncc2ccn(Cc3ccc(-c4nc(C(F)(F)F)cn4C(C)C)cc3)c2n1 |
| 100 to 200 nM | COc1ncnc(C2CC2)c1-c1ncc2ncn(Cc3ccc(-c4nc(C(F)(F)F)cn4C)cc3)c2n1 [drawing 831] |
| 10 to 100 nM | CCn1cc(C(F)(F)F)nc1-c1ccc(Cn2nc(OC)c3cnc(-c4c(OC)ncnc4C4CC4)nc32)cc1 [drawing 819] |
